In patent US20240299591A1, “Antimicrobial Peptides and Their Use” (priority 2021, published 2024):
≈ marks a conversion by molar mass, not a printed value. Entries after “also recorded” stand apart in the source; their conditions may differ. Where a SMILES comes first, the peptide text is derived from it.

Legend:
YFP-A. fumigatus = assay: Ex vivo porcine cornea infected with YFP-A. fumigatus, topical treatment, confocal live-cell imaging; set-up: species or system Aspergillus fumigatus
Protocol: FIG. 6 contains images of ex vivo corneas infected with YFP-A. fumigatus treated with either PBS or MFIGAF001. All cornea were treated with one drop of reagent every 2 hours for the first 8 hours, then one drop every 8 hours for the remaining 16 hours. Treatment was continued for 72 hours with this treatment regimen. MFIGAF001 was used at 100 mg/L.
FIG. 7 contains images of an ex vivo cornea infected with A. fumigatus treated with MFIGAF001, using the fluorescent confocal live-cell imaging approach with a yellow fluorescent protein (YFP). The yellow fluorescent signal (yellow in the original graphs, white reproduced here) indicates the live fungal burden that penetrated into the corneal tissue. All cornea were treated with one drop of reagent every 2 hours for the first 8 hours, then one drop every 8 hours for the remaining 16 hours. Treatment was continued for 72 hours with this treatment regimen. MFIGAF001 was used at 100 mg/L.
FIG. 8 contains images of an ex vivo cornea infected with A. fumigatus treated with either Natamycin or MFIGAF001, using the fluorescent confocal live-cell imaging approach with a YFP. All cornea were treated with one drop of reagent every 2 hours for the first 8 hours, then one drop every 8 hours for the remaining 16 hours. […]
YFP-A. fumigatus spores were harvested from 3 days old cultures grown on SAB agar at 37° C. in PBST and quantified using a haemocytometer. […]

Aspergillus fumigatus = assay type: cell-based
Protocol: The assays were performed using Nunc 262162 U96 polystyrene round bottomed clear plates (www.nuncbrand.com).
(§1) When testing the peptides against A. fumigatus, peptides at different concentrations were mixed with A. fumigatus conidia to reach a final volume of 100 μL per well. The final conidial concentration was 5×10^5 cells/mL in 10% Vogel's medium. After 24 h of incubation at 37° C. in 96 well plates, fungal growth with the different peptide concentrations was determined by measurement of the optical density at 610 nm in a TriStar LB 941 Multimode Microplate Reader. The IC50 values were determined using four parameter logistic regression formula provided by Sigma Plot 10.0. Values are represented as means±SEM from two independent experiments (n=3).
(§2) The IC50 of the fluorescently labelled peptides cannot be accurately determined using the optical density method described in the last section. This is because the fluorophore structures absorbed light at 610 nm which was the wavelength used for the optical density measurements. In order to overcome this, the BacTiter-Glo™ Microbial Cell Viability Assay kit purchased from Promega was used. The BacTiter-Glo™ Reagent relies on the properties of a proprietary thermostable luciferase (Ultra-Glo™ Recombinant Luciferase) and a proprietary formulation for extracting ATP from fungal cells which will generates a ‘glow-type’ luminescent signal. This is produced by the luciferase reaction shown in Scheme 1, which has a signal half-life of over 30 min depending on the experimental conditions. The luminescent signal is proportional to the amount of ATP present, which is directly proportional to the number of living cells in culture.
(§3) The IC50 assays for all fluorescently labelled peptides were performed using Greiner CELLSTAR white polystyrene wells flat bottomed 96 well plates. The incubation conditions remained the same for the optical density measurement described in the previous section. Once the incubation procedure was finished, the plate was equilibrated to room temperature. A mixture of BacTiter-Glo™ buffer and substrate was then added to the plate (100 μL per well). The plate was shaken for 5 min and read using the Tristar […] luminometer. Data analysis was performed using Sigma Plot 10.0. All values shown are presented as means±SEM from two independent experiments (n=3).

F. oxysporum = assay: Minimum inhibitory concentration, F. oxysporum; assay type: cell-based, Fusarium oxysporum; settings: 5 × 10^5, 10% Vogel's
Protocol: F. oxysporum was grown in liquid potato dextrose broth (PDB) at 28° C. with shaking (170 rpm) for 5 days. The suspension was filtered through folded Miracloth (4 layers) and centrifuged for 10 min at RT. The supernatant was discard and the pellet was resuspend in 1.5 mL of sterile dH2O and quantified.

Fusarium oxysporum = assay type: cell-based; settings: 24 h
Protocol: Dose dependent inhibition of fungal growth by all non-labelled peptides (indicated by IC50 values) was determined via this methodology. The assays were performed using Nunc 262162 U96 polystyrene round bottomed clear plates (www.nuncbrand.com).
as §1
When testing the peptides against N. crassa and F. oxysporum, experiments were carried as described above apart from the incubation temperature was changed to 25° C. for N. crassa and 35° C. for F. oxysporum.
as §2, §3

Compound: N=C(N)NCCC[C@@H]1NC(=O)CNC(=O)[C@H](Cc2c[nH]c3ccccc23)NC(=O)[C@H](Cc2ccccc2)NC(=O)[C@H](Cc2c[nH]c3ccccc23)NC(=O)[C@@H](Cc2ccccc2)NC(=O)[C@H](CCCCN)NC(=O)[C@H](CCCCN)NC1=O [MFIGAF001, Cyclo(Arg-Lys-Lys-phe-Trp-Phe-Trp-Gly)] (HELM PEPTIDE1{F.W.G.R.K.K.[dF].W}$PEPTIDE1,PEPTIDE1,1:R1-8:R2$$$V2.0)
- Live fungal burden in ex vivo cornea (YFP-A. fumigatus; 100 mg/L topical drops, 72 h of treatment, vs saline): reduced fungal burden; also recorded: elimination of live fungal burden
- Efficacy ex vivo compared with Natamycin (YFP-A. fumigatus; MFIGAF001 100 mg/L, Natamycin 120 mg/L, 72 hours): comparable efficacy
- IC50 Aspergillus fumigatus (Aspergillus fumigatus; 24 h): 1.4 µg/mL (≈ 1.23 µM)
- IC99 Aspergillus fumigatus (Aspergillus fumigatus; Conidia (10% Vogel's), 37° C., 24 h): 5.7 mg/L
- IC50 value against major pathogenic fungi (in words) (Aspergillus fumigatus; various fungi, including Aspergillus fumigatus and Fusarium oxysporum): sub-micromolar
- MIC (F. oxysporum): 6.25 µM (≈ 7.1 µg/mL)
- IC50 Fusarium oxysporum (Fusarium oxysporum): 1.9 µg/mL (≈ 1.67 µM)
